From ChEMBL document CHEMBL1144628, “6-Hydrazinopurine 2'-methyl ribonucleosides and their 5'-monophosphate prodrugs as potent hepatitis C virus inhibitors” (Bioorg Med Chem Lett, 2007)

system: not listed separately; experiment: Stability in human simulated intestinal fluid at 1 mg/mL after 2 hrs; assay type: ADME; conditions: simulated gi fluid

Row | SMILES | Stability
1 | COC(=O)C(C)(C)NP(=O)(OC[C@H]1O[C@@H](n2cnc3c(N(C)NS(C)(=O)=O)ncnc32)[C@](C)(O)[C@@H]1O)Oc1ccc(Cl)cc1 (some centres not stated) | Stable
2 | COC(=O)C(C)(C)NP(=O)(OC[C@H]1O[C@@H](n2cnc3c(N(C)NS(C)(=O)=O)nc(N)nc32)[C@](C)(O)[C@@H]1O)Oc1ccc(Cl)cc1 (some centres not stated) | Stable

system: Plasma; experiment: Stability in human plasma; assay type: ADME, cell-free; conditions: not given

Row | SMILES | Stability
3 | CC(NP(=O)(OC[C@H]1O[C@@H](n2cnc3c(N(C)NS(C)(=O)=O)nc(N)nc32)[C@](C)(O)[C@@H]1O)Oc1ccccc1)C(=O)OCc1ccccc1 (some centres not stated) | Stable
4 | COC(=O)CNP(=O)(OC[C@H]1O[C@@H](n2cnc3c(N(C)NS(C)(=O)=O)nc(N)nc32)[C@](C)(O)[C@@H]1O)Oc1ccccc1 (some centres not stated) | Stable
5 | COC(=O)CNP(=O)(OC[C@H]1O[C@@H](n2cnc3c(N(C)NS(C)(=O)=O)nc(N)nc32)[C@](C)(O)[C@@H]1O)Oc1ccc(Cl)cc1 (some centres not stated) | Stable
6 | CC(NP(=O)(OC[C@H]1O[C@@H](n2cnc3c(N(C)NS(C)(=O)=O)ncnc32)[C@](C)(O)[C@@H]1O)Oc1ccccc1)C(=O)OCc1ccccc1 (some centres not stated) | Stable
7 | CC(NP(=O)(OC[C@H]1O[C@@H](n2cnc3c(N(C)NS(C)(=O)=O)nc(N)nc32)[C@](C)(O)[C@@H]1O)Oc1ccc(Cl)cc1)C(=O)OCc1ccccc1 (some centres not stated) | Stable
8 | CC(C)OC(=O)C(C)NP(=O)(OC[C@H]1O[C@@H](n2cnc3c(N(C)NS(C)(=O)=O)ncnc32)[C@](C)(O)[C@@H]1O)Oc1ccc(Cl)cc1 (some centres not stated) | Stable
9 | COC(=O)CNP(=O)(OC[C@H]1O[C@@H](n2cnc3c(N(C)NS(C)(=O)=O)ncnc32)[C@](C)(O)[C@@H]1O)Oc1ccccc1 (some centres not stated) | Stable
10 | CC(NP(=O)(OC[C@H]1O[C@@H](n2cnc3c(N(C)NS(C)(=O)=O)ncnc32)[C@](C)(O)[C@@H]1O)Oc1ccc(Cl)cc1)C(=O)OCc1ccccc1 (some centres not stated) | Stable
11 | COC(=O)C(C)(C)NP(=O)(OC[C@H]1O[C@@H](n2cnc3c(N(C)NS(C)(=O)=O)ncnc32)[C@](C)(O)[C@@H]1O)Oc1ccc(Cl)cc1 (some centres not stated) | Stable
12 | COC(=O)C(C)(C)NP(=O)(OC[C@H]1O[C@@H](n2cnc3c(N(C)NS(C)(=O)=O)nc(N)nc32)[C@](C)(O)[C@@H]1O)Oc1ccc(Cl)cc1 (some centres not stated) | Stable

system: not listed separately; experiment: Stability in human simulated intestinal fluid at 1 mg/mL after 60 mins; assay type: ADME; conditions: read-out: Stability

Row | SMILES | remaining at 1 h, 1 mg/mL
13 | CC(NP(=O)(OC[C@H]1O[C@@H](n2cnc3c(N(C)NS(C)(=O)=O)nc(N)nc32)[C@](C)(O)[C@@H]1O)Oc1ccccc1)C(=O)OCc1ccccc1 (some centres not stated) | 0%
14 | COC(=O)CNP(=O)(OC[C@H]1O[C@@H](n2cnc3c(N(C)NS(C)(=O)=O)nc(N)nc32)[C@](C)(O)[C@@H]1O)Oc1ccccc1 (some centres not stated) | 0%
15 | COC(=O)CNP(=O)(OC[C@H]1O[C@@H](n2cnc3c(N(C)NS(C)(=O)=O)nc(N)nc32)[C@](C)(O)[C@@H]1O)Oc1ccc(Cl)cc1 (some centres not stated) | 0%
16 | CC(NP(=O)(OC[C@H]1O[C@@H](n2cnc3c(N(C)NS(C)(=O)=O)ncnc32)[C@](C)(O)[C@@H]1O)Oc1ccccc1)C(=O)OCc1ccccc1 (some centres not stated) | 0%
17 | CC(NP(=O)(OC[C@H]1O[C@@H](n2cnc3c(N(C)NS(C)(=O)=O)nc(N)nc32)[C@](C)(O)[C@@H]1O)Oc1ccc(Cl)cc1)C(=O)OCc1ccccc1 (some centres not stated) | 0%
18 | CC(C)OC(=O)C(C)NP(=O)(OC[C@H]1O[C@@H](n2cnc3c(N(C)NS(C)(=O)=O)ncnc32)[C@](C)(O)[C@@H]1O)Oc1ccc(Cl)cc1 (some centres not stated) | 48%
19 | COC(=O)CNP(=O)(OC[C@H]1O[C@@H](n2cnc3c(N(C)NS(C)(=O)=O)ncnc32)[C@](C)(O)[C@@H]1O)Oc1ccccc1 (some centres not stated) | 0%
20 | CC(NP(=O)(OC[C@H]1O[C@@H](n2cnc3c(N(C)NS(C)(=O)=O)ncnc32)[C@](C)(O)[C@@H]1O)Oc1ccc(Cl)cc1)C(=O)OCc1ccccc1 (some centres not stated) | 0%
21 | COC(=O)C(C)(C)NP(=O)(OC[C@H]1O[C@@H](n2cnc3c(N(C)NS(C)(=O)=O)ncnc32)[C@](C)(O)[C@@H]1O)Oc1ccc(Cl)cc1 (some centres not stated) | 100%
22 | COC(=O)C(C)(C)NP(=O)(OC[C@H]1O[C@@H](n2cnc3c(N(C)NS(C)(=O)=O)nc(N)nc32)[C@](C)(O)[C@@H]1O)Oc1ccc(Cl)cc1 (some centres not stated) | 100%

system: Hepatitis C virus; experiment: Antiviral activity against HCV by replicon assay; assay type: functional, organism-based, Hepacivirus hominis; conditions: not given

Row | SMILES | EC50
23 | CC(NP(=O)(OC[C@H]1O[C@@H](n2cnc3c(N(C)NS(C)(=O)=O)nc(N)nc32)[C@](C)(O)[C@@H]1O)Oc1ccccc1)C(=O)OCc1ccccc1 (some centres not stated) | 2200 nM
24 | COC(=O)CNP(=O)(OC[C@H]1O[C@@H](n2cnc3c(N(C)NS(C)(=O)=O)nc(N)nc32)[C@](C)(O)[C@@H]1O)Oc1ccccc1 (some centres not stated) | 22000 nM
25 | COC(=O)CNP(=O)(OC[C@H]1O[C@@H](n2cnc3c(N(C)NS(C)(=O)=O)nc(N)nc32)[C@](C)(O)[C@@H]1O)Oc1ccc(Cl)cc1 (some centres not stated) | 8900 nM
26 | CC(NP(=O)(OC[C@H]1O[C@@H](n2cnc3c(N(C)NS(C)(=O)=O)ncnc32)[C@](C)(O)[C@@H]1O)Oc1ccccc1)C(=O)OCc1ccccc1 (some centres not stated) | 2900 nM
27 | CC(NP(=O)(OC[C@H]1O[C@@H](n2cnc3c(N(C)NS(C)(=O)=O)nc(N)nc32)[C@](C)(O)[C@@H]1O)Oc1ccc(Cl)cc1)C(=O)OCc1ccccc1 (some centres not stated) | 110 nM
28 | CC(C)OC(=O)C(C)NP(=O)(OC[C@H]1O[C@@H](n2cnc3c(N(C)NS(C)(=O)=O)ncnc32)[C@](C)(O)[C@@H]1O)Oc1ccc(Cl)cc1 (some centres not stated) | 2500 nM
29 | COC(=O)CNP(=O)(OC[C@H]1O[C@@H](n2cnc3c(N(C)NS(C)(=O)=O)ncnc32)[C@](C)(O)[C@@H]1O)Oc1ccccc1 (some centres not stated) | 220000 nM
30 | CC(NP(=O)(OC[C@H]1O[C@@H](n2cnc3c(N(C)NS(C)(=O)=O)ncnc32)[C@](C)(O)[C@@H]1O)Oc1ccc(Cl)cc1)C(=O)OCc1ccccc1 (some centres not stated) | 680 nM
31 | COC(=O)C(C)(C)NP(=O)(OC[C@H]1O[C@@H](n2cnc3c(N(C)NS(C)(=O)=O)ncnc32)[C@](C)(O)[C@@H]1O)Oc1ccc(Cl)cc1 (some centres not stated) | 1400 nM
32 | COC(=O)C(C)(C)NP(=O)(OC[C@H]1O[C@@H](n2cnc3c(N(C)NS(C)(=O)=O)nc(N)nc32)[C@](C)(O)[C@@H]1O)Oc1ccc(Cl)cc1 (some centres not stated) | 260 nM

system: not listed separately; experiment: Stability in human simulated gastric fluid; assay type: ADME, Stomach; conditions: simulated gi fluid

Row | SMILES | Stability
33 | CC(NP(=O)(OC[C@H]1O[C@@H](n2cnc3c(N(C)NS(C)(=O)=O)nc(N)nc32)[C@](C)(O)[C@@H]1O)Oc1ccccc1)C(=O)OCc1ccccc1 (some centres not stated) | Stable
34 | COC(=O)CNP(=O)(OC[C@H]1O[C@@H](n2cnc3c(N(C)NS(C)(=O)=O)nc(N)nc32)[C@](C)(O)[C@@H]1O)Oc1ccccc1 (some centres not stated) | Stable
35 | COC(=O)CNP(=O)(OC[C@H]1O[C@@H](n2cnc3c(N(C)NS(C)(=O)=O)nc(N)nc32)[C@](C)(O)[C@@H]1O)Oc1ccc(Cl)cc1 (some centres not stated) | Stable
36 | CC(NP(=O)(OC[C@H]1O[C@@H](n2cnc3c(N(C)NS(C)(=O)=O)ncnc32)[C@](C)(O)[C@@H]1O)Oc1ccccc1)C(=O)OCc1ccccc1 (some centres not stated) | Stable
37 | CC(NP(=O)(OC[C@H]1O[C@@H](n2cnc3c(N(C)NS(C)(=O)=O)nc(N)nc32)[C@](C)(O)[C@@H]1O)Oc1ccc(Cl)cc1)C(=O)OCc1ccccc1 (some centres not stated) | Stable
38 | CC(C)OC(=O)C(C)NP(=O)(OC[C@H]1O[C@@H](n2cnc3c(N(C)NS(C)(=O)=O)ncnc32)[C@](C)(O)[C@@H]1O)Oc1ccc(Cl)cc1 (some centres not stated) | Stable
39 | COC(=O)CNP(=O)(OC[C@H]1O[C@@H](n2cnc3c(N(C)NS(C)(=O)=O)ncnc32)[C@](C)(O)[C@@H]1O)Oc1ccccc1 (some centres not stated) | Stable
40 | CC(NP(=O)(OC[C@H]1O[C@@H](n2cnc3c(N(C)NS(C)(=O)=O)ncnc32)[C@](C)(O)[C@@H]1O)Oc1ccc(Cl)cc1)C(=O)OCc1ccccc1 (some centres not stated) | Stable
41 | COC(=O)C(C)(C)NP(=O)(OC[C@H]1O[C@@H](n2cnc3c(N(C)NS(C)(=O)=O)ncnc32)[C@](C)(O)[C@@H]1O)Oc1ccc(Cl)cc1 (some centres not stated) | Stable
42 | COC(=O)C(C)(C)NP(=O)(OC[C@H]1O[C@@H](n2cnc3c(N(C)NS(C)(=O)=O)nc(N)nc32)[C@](C)(O)[C@@H]1O)Oc1ccc(Cl)cc1 (some centres not stated) | Stable

system: not listed separately; experiment: Stability in human simulated intestinal fluid at 1 mg/mL after 30 mins; assay type: ADME; conditions: read-out: Stability

Row | SMILES | remaining at 0.5 h, 1 mg/mL
43 | CC(NP(=O)(OC[C@H]1O[C@@H](n2cnc3c(N(C)NS(C)(=O)=O)nc(N)nc32)[C@](C)(O)[C@@H]1O)Oc1ccccc1)C(=O)OCc1ccccc1 (some centres not stated) | 0%
44 | COC(=O)CNP(=O)(OC[C@H]1O[C@@H](n2cnc3c(N(C)NS(C)(=O)=O)nc(N)nc32)[C@](C)(O)[C@@H]1O)Oc1ccccc1 (some centres not stated) | 0%
45 | COC(=O)CNP(=O)(OC[C@H]1O[C@@H](n2cnc3c(N(C)NS(C)(=O)=O)nc(N)nc32)[C@](C)(O)[C@@H]1O)Oc1ccc(Cl)cc1 (some centres not stated) | 0%
46 | CC(NP(=O)(OC[C@H]1O[C@@H](n2cnc3c(N(C)NS(C)(=O)=O)ncnc32)[C@](C)(O)[C@@H]1O)Oc1ccccc1)C(=O)OCc1ccccc1 (some centres not stated) | 0%
47 | CC(NP(=O)(OC[C@H]1O[C@@H](n2cnc3c(N(C)NS(C)(=O)=O)nc(N)nc32)[C@](C)(O)[C@@H]1O)Oc1ccc(Cl)cc1)C(=O)OCc1ccccc1 (some centres not stated) | 0%
48 | CC(C)OC(=O)C(C)NP(=O)(OC[C@H]1O[C@@H](n2cnc3c(N(C)NS(C)(=O)=O)ncnc32)[C@](C)(O)[C@@H]1O)Oc1ccc(Cl)cc1 (some centres not stated) | 67%
49 | COC(=O)CNP(=O)(OC[C@H]1O[C@@H](n2cnc3c(N(C)NS(C)(=O)=O)ncnc32)[C@](C)(O)[C@@H]1O)Oc1ccccc1 (some centres not stated) | 0%
50 | CC(NP(=O)(OC[C@H]1O[C@@H](n2cnc3c(N(C)NS(C)(=O)=O)ncnc32)[C@](C)(O)[C@@H]1O)Oc1ccc(Cl)cc1)C(=O)OCc1ccccc1 (some centres not stated) | 0%
51 | COC(=O)C(C)(C)NP(=O)(OC[C@H]1O[C@@H](n2cnc3c(N(C)NS(C)(=O)=O)ncnc32)[C@](C)(O)[C@@H]1O)Oc1ccc(Cl)cc1 (some centres not stated) | 100%
52 | COC(=O)C(C)(C)NP(=O)(OC[C@H]1O[C@@H](n2cnc3c(N(C)NS(C)(=O)=O)nc(N)nc32)[C@](C)(O)[C@@H]1O)Oc1ccc(Cl)cc1 (some centres not stated) | 100%
